According to ChEMBL document CHEMBL1201862, “PubChem BioAssay data set” (2004):
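Dose response: 5 concentrations. Exposure: 48 h. Format: 96-well plates. Endpoint: linear interpolation; highest concentration if not reached. GI50: concentration for 50% inhibition of growth.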 Activity calls are given as the source filed them. No stated cut-off is given here; in the data, active = GI50 up to about 1.1 µM and inactive = higher.

Tests used:
Assay in all cases: inhibition of tumour cell growth, NCI panel, 48 h
[1] = test system: NCI-H460
[2] = test system: HOP-92
[3] = test system: NCI-H226
[4] = test system: KM12
[5] = test system: A549
[6] = test system: NCI-H522
[7] = test system: RXF 393
[8] = test system: SNB-75
[9] = test system: SK-MEL-5
[10] = test system: LOX IMVI
[11] = test system: EKVX
[12] = test system: RPMI-8226
[13] = test system: UO-31
[14] = test system: HCT-15

CC(/C=C/C(=O)c1sc(-n2nc(-c3ccccc3)cc2-c2ccccc2)nc1C)=C\c1ccccc1
GI50 [1]: 52.7 µM (inactive) | GI50 [2]: 8.69 µM (inactive) | GI50 [3]: > 10 µM (inactive) | GI50 [4]: 23.8 µM (inactive) | GI50 [5]: 38.8 µM (inactive) | GI50 [6]: 19 µM (inactive) | GI50 [7]: > 10 µM (inactive) | GI50 [8]: 2.02 µM (inactive) | GI50 [9]: 15.5 µM (inactive) | GI50 [10]: 71.9 µM (inactive) | GI50 [11]: 5.05 µM (inactive) | GI50 [12]: 19.3 µM (inactive) | GI50 [13]: 24 µM (inactive) | GI50 [14]: 19.2 µM

O=C(c1cc2c(C(F)(F)F)onc2c2ccccc12)C(F)(F)F
GI50 [1]: 1.24 µM (inactive) | GI50 [2]: 1.58 µM (inactive) | GI50 [3]: 3.01 µM (inactive) | GI50 [4]: 0.746 µM (active) | GI50 [5]: 4.51 µM (inactive) | GI50 [6]: 1.78 µM (inactive) | GI50 [7]: 4.3 µM (inactive) | GI50 [8]: 1.16 µM (inactive) | GI50 [9]: 4.16 µM (inactive) | GI50 [10]: 1.63 µM (inactive) | GI50 [11]: 7.38 µM (inactive) | GI50 [12]: 0.935 µM (active) | GI50 [13]: 1.7 µM (inactive) | GI50 [14]: 0.741 µM

C=CCONC(=O)c1ccc(Cl)cc1
GI50 [1]: > 100 µM (inactive) | GI50 [2]: > 100 µM (inactive) | GI50 [4]: > 100 µM (inactive) | GI50 [5]: > 100 µM (inactive) | GI50 [6]: > 100 µM (inactive) | GI50 [7]: > 100 µM (inactive) | GI50 [8]: 84.1 µM (inactive) | GI50 [9]: > 100 µM (inactive) | GI50 [10]: > 100 µM (inactive) | GI50 [11]: > 100 µM (inactive) | GI50 [12]: > 100 µM (inactive) | GI50 [13]: > 100 µM (inactive) | GI50 [14]: > 100 µM

CCN(CC)c1ccc2c(c1)Nc1cc(=C(C#N)C#N)c3ccccc3c1=N2
GI50 [1]: 95.3 µM (inactive) | GI50 [2]: > 100 µM (inactive) | GI50 [3]: > 100 µM (inactive) | GI50 [4]: > 100 µM (inactive) | GI50 [5]: > 100 µM (inactive) | GI50 [6]: > 100 µM (inactive) | GI50 [7]: > 100 µM (inactive) | GI50 [8]: > 100 µM (inactive) | GI50 [9]: > 100 µM (inactive) | GI50 [10]: 53.5 µM (inactive) | GI50 [11]: > 100 µM (inactive) | GI50 [12]: > 100 µM (inactive) | GI50 [13]: > 100 µM (inactive)

CCOC(=O)C(C#N)(Cc1c[nH]c2ccccc12)NC(C)=O (stereo not given)
GI50 [1]: > 100 µM (inactive) | GI50 [2]: > 100 µM (inactive) | GI50 [3]: > 100 µM (inactive) | GI50 [4]: > 100 µM (inactive) | GI50 [6]: > 100 µM (inactive) | GI50 [7]: > 100 µM (inactive) | GI50 [8]: > 100 µM (inactive) | GI50 [9]: > 100 µM (inactive) | GI50 [10]: > 100 µM (inactive) | GI50 [11]: > 100 µM (inactive) | GI50 [12]: > 100 µM (inactive) | GI50 [13]: > 100 µM (inactive) | GI50 [14]: > 100 µM

C=C(CO)CC(O)c1ccccc1 (stereo not given)
GI50 [1]: > 100 µM (inactive) | GI50 [2]: > 100 µM (inactive) | GI50 [3]: > 100 µM (inactive) | GI50 [4]: > 100 µM (inactive) | GI50 [5]: > 100 µM (inactive) | GI50 [6]: > 100 µM (inactive) | GI50 [7]: > 100 µM (inactive) | GI50 [8]: > 100 µM (inactive) | GI50 [9]: > 100 µM (inactive) | GI50 [10]: > 100 µM (inactive) | GI50 [11]: > 100 µM (inactive) | GI50 [12]: > 100 µM (inactive) | GI50 [13]: > 100 µM (inactive) | GI50 [14]: > 100 µM

O=C1C(c2ccccc2)=C(c2ccccc2)C(c2ccc(CCCCCCc3ccc(C4=C(c5ccccc5)C(=O)C(c5ccccc5)=C4c4ccccc4)cc3)cc2)=C1c1ccccc1
GI50 [1]: > 100 µM (inactive) | GI50 [2]: > 100 µM (inactive) | GI50 [4]: > 100 µM (inactive) | GI50 [5]: > 100 µM (inactive) | GI50 [6]: > 100 µM (inactive) | GI50 [7]: 26.4 µM (inactive) | GI50 [9]: > 100 µM (inactive) | GI50 [11]: > 100 µM (inactive) | GI50 [12]: > 100 µM (inactive) | GI50 [13]: > 100 µM (inactive) | GI50 [14]: > 100 µM

CS(=O)(=O)N(N(CCCl)S(=O)(=O)c1ccccc1)S(C)(=O)=O
GI50 [1]: 86.1 µM (inactive) | GI50 [2]: > 100 µM (inactive) | GI50 [3]: > 100 µM (inactive) | GI50 [4]: > 100 µM (inactive) | GI50 [5]: > 100 µM (inactive) | GI50 [6]: > 100 µM (inactive) | GI50 [7]: > 100 µM (inactive) | GI50 [8]: 50.8 µM (inactive) | GI50 [9]: 52.7 µM (inactive) | GI50 [11]: > 100 µM (inactive) | GI50 [12]: > 100 µM (inactive) | GI50 [13]: 76.7 µM (inactive) | GI50 [14]: > 100 µM
